From PubChem BioAssay AID330 (DTP/NCI, 2004)
“And” between values parts separate entries of the source, which are not always exact repeats. Equal entries are not always repeated. Inconclusive results and toxic doses are left out.

Tested on: P388 leukemia ip, CD2F1 mice, survival T/C
Assay: NCI In Vivo Anticancer Drug Screen. Data for tumor model P388 Leukemia (intraperitoneal) in CD2F1 (CDF1) mice
Conditions: endpoint: median survival time, higher = longer survival
Summary of the method: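 Mice carrying the transplanted tumor received test compound or vehicle. Survival was recorded in each group, and the value is the treated-group measurement divided by that of the vehicle-treated control group.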

[1] = dose: 50.0 mg/kg/injection, schedule: Q01DX009 (ip), vehicle: Klucel (hydroxypropylcellulose) (HPC)
[2] = dose: 100.0 mg/kg/injection, schedule: Q01DX009 (ip), vehicle: Klucel (hydroxypropylcellulose) (HPC)
[3] = dose: 200.0 mg/kg/injection, schedule: Q01DX009 (ip), vehicle: Klucel (hydroxypropylcellulose) (HPC)
[4] = dose: 25.0 mg/kg/injection, schedule: Q01DX005 (ip), vehicle: Klucel (hydroxypropylcellulose) (HPC)
[5] = dose: 50.0 mg/kg/injection, schedule: Q01DX005 (ip), vehicle: Klucel (hydroxypropylcellulose) (HPC)
[6] = dose: 100.0 mg/kg/injection, schedule: Q01DX005 (ip), vehicle: Klucel (hydroxypropylcellulose) (HPC)
[7] = dose: 200.0 mg/kg/injection, schedule: Q01DX005 (ip), vehicle: Klucel (hydroxypropylcellulose) (HPC)
[8] = dose: 50.0 mg/kg/injection, schedule: Q01DX009 (ip), vehicle: saline with Tween-80
[9] = dose: 100.0 mg/kg/injection, schedule: Q01DX009 (ip), vehicle: saline with Tween-80
[10] = dose: 200.0 mg/kg/injection, schedule: Q01DX009 (ip), vehicle: saline with Tween-80
[11] = dose: 100.0 mg/kg/injection, schedule: Q04DX003 (ip), vehicle: saline
[12] = dose: 200.0 mg/kg/injection, schedule: Q04DX003 (ip), vehicle: saline
[13] = dose: 400.0 mg/kg/injection, schedule: Q04DX003 (ip), vehicle: saline
[14] = dose: 3.12 mg/kg/injection, schedule: Q01DX009 (ip), vehicle: saline
[15] = dose: 6.25 mg/kg/injection, schedule: Q01DX009 (ip), vehicle: saline
[16] = dose: 12.5 mg/kg/injection, schedule: Q01DX009 (ip), vehicle: saline
[17] = dose: 50.0 mg/kg/injection, schedule: Q01DX009 (ip), vehicle: saline
[18] = dose: 100.0 mg/kg/injection, schedule: Q01DX009 (ip), vehicle: saline
[19] = dose: 200.0 mg/kg/injection, schedule: Q01DX009 (ip), vehicle: saline
[20] = dose: 60.0 mg/kg/injection, schedule: Q01DX005 (ip), vehicle: saline with Tween-80
[21] = dose: 120.0 mg/kg/injection, schedule: Q01DX005 (ip), vehicle: saline with Tween-80
[22] = dose: 100.0 mg/kg/injection, schedule: Q04DX002 (ip), vehicle: saline with Tween-80
[23] = dose: 200.0 mg/kg/injection, schedule: Q04DX002 (ip), vehicle: saline with Tween-80
[24] = dose: 400.0 mg/kg/injection, schedule: Q04DX002 (ip), vehicle: saline with Tween-80

NS(=O)(=O)c1ccc(NC(=O)CCCCl)cc1
T/C [1]: 100 % of control
T/C [2]: 94 % of control
T/C [3]: 86 % of control

CC(=O)C1C(=O)C(=O)N(c2ccc(C)cc2C)C1=O (stereo unspecified)
T/C [1]: 105 % of control
T/C [2]: 114 % of control
T/C [3]: 110 % of control

COc1ccc(/C=C\C(=O)c2ccc(C(=O)/C=C/c3ccc(OC)cc3OC)cc2)c(OC)c1
T/C (dose: 12.5 mg/kg/injection, schedule: Q04DX003 (ip), vehicle: saline with Tween-80): 100 % of control
T/C (dose: 25.0 mg/kg/injection, schedule: Q04DX003 (ip), vehicle: saline with Tween-80): 102 % of control
T/C (dose: 50.0 mg/kg/injection, schedule: Q04DX003 (ip), vehicle: saline with Tween-80): 92 % of control

O=c1[nH]cnc2c1cnn2CN1CCOCC1
T/C [4]: 106 % of control
T/C [5]: 117 % of control and 90 % of control
T/C [6]: 120 % of control

COC1=CC(=O)C=C(OC)C1=O
T/C (dose: 0.5 mg/kg/injection, schedule: Q01DX009 (ip), vehicle: saline with Tween-80): 109 % of control
T/C (dose: 1.0 mg/kg/injection, schedule: Q01DX009 (ip), vehicle: saline with Tween-80): 113 % of control
T/C (dose: 2.0 mg/kg/injection, schedule: Q01DX009 (ip), vehicle: saline with Tween-80): 119 % of control
T/C (dose: 4.0 mg/kg/injection, schedule: Q01DX009 (ip), vehicle: saline with Tween-80): 111 % of control

COc1ccc(C2c3cc(OC)c(OC)cc3CC3C(=O)OCC32)cc1OC (stereo unspecified)
T/C [5]: 94 % of control and 107 % of control
T/C [6]: 100 % of control and 97 % of control
T/C [7]: 112 % of control and 103 % of control

CC(C)(C)NCC(O)COc1cccc2c1CCC(=O)N2 (stereo unspecified)
T/C [8]: 100 % of control
T/C [9]: 102 % of control
T/C [10]: 97 % of control

CC(N)C(=O)NC(C)P(=O)(O)O (stereo unspecified)
T/C [8]: 102 % of control
T/C [9]: 101 % of control
T/C [10]: 101 % of control

Cc1cnc(NCCCCCCCCNc2ncc(C)c(-c3ccccc3O)n2)nc1-c1ccccc1O
T/C [11]: 95 % of control
T/C [12]: 93 % of control
T/C [13]: 89 % of control

O=c1oc2ccccc2c(O)c1C(c1ccc2c(c1)OCO2)c1c(O)c2ccccc2oc1=O
T/C (dose: 15.0 mg/kg/injection, schedule: Q01DX005 (ip), vehicle: saline with Tween-80): 98 % of control
T/C (dose: 30.0 mg/kg/injection, schedule: Q01DX005 (ip), vehicle: saline with Tween-80): 96 % of control

O=[N+]([O-])C(Br)(CO)CO
T/C [14]: 100 % of control
T/C [15]: 103 % of control
T/C [16]: 114 % of control and 118 % of control

COC(=O)C1C2C=CC(C1C(=O)OC)C1C3C(=O)N(N)C(=O)C3C21 (stereo unspecified)
T/C (dose: 50.0 mg/kg/injection, schedule: Q01DX005 (ip), vehicle: saline with Tween-80): 100 % of control
T/C (dose: 100.0 mg/kg/injection, schedule: Q01DX005 (ip), vehicle: saline with Tween-80): 96 % of control
T/C (dose: 200.0 mg/kg/injection, schedule: Q01DX005 (ip), vehicle: saline with Tween-80): 91 % of control

CC(=O)OC1C(=O)C2(C)C(O)CC3OCC3(OC(C)=O)C2C(OC(=O)c2ccccc2)C2(O)CC(OC(=O)C(O)C(NC(=O)c3ccccc3)c3ccccc3)C(C)=C1C2(C)C (stereo unspecified)
T/C (dose: 2.5 mg/kg/injection, schedule: Q01DX005 (ip), vehicle: DMSO): 106 % of control
T/C (dose: 5.0 mg/kg/injection, schedule: Q01DX005 (ip), vehicle: DMSO): 121 % of control
T/C (dose: 20.0 mg/kg/injection, schedule: Q01DX005 (ip), vehicle: DMSO): 167 % of control

CC(NC(=O)C(Cc1ccccc1)NC(=O)c1ccc[n+](Cc2ccccc2)c1)C(N)=O (stereo unspecified)
T/C (dose: 60.0 mg/kg/injection, schedule: Q01DX005 (ip), vehicle: saline): 97 % of control
T/C (dose: 120.0 mg/kg/injection, schedule: Q01DX005 (ip), vehicle: saline): 93 % of control

C#CCSc1nc2ccccc2s1
T/C [1]: 98 % of control
T/C [2]: 109 % of control

CN(/N=C\c1ccccc1)C(N)=S
T/C [5]: 105 % of control
T/C [6]: 111 % of control
T/C [7]: 101 % of control

CCCCCCCCCCCC(=O)N(C)CCOC(=O)C(C)(C)C
T/C [17]: 106 % of control
T/C [18]: 98 % of control
T/C [19]: 116 % of control

Cc1ccc(N2C(=O)CSC2=S)cc1Cl
T/C [17]: 103 % of control
T/C [18]: 94 % of control
T/C [19]: 100 % of control

O=C=C=O
T/C (dose: 1:2.0 dilution, schedule: Q01DX001 (ip), vehicle: none): 102 % of control
T/C (dose: 1:4.0 dilution, schedule: Q01DX001 (ip), vehicle: none): 104 % of control
T/C (dose: 1:8.0 dilution, schedule: Q01DX001 (ip), vehicle: none): 99 % of control

CCC(CC)C(=O)NC(=O)NC(N)=O
T/C [20]: 97 % of control
T/C [21]: 97 % of control
T/C (dose: 240.0 mg/kg/injection, schedule: Q01DX005 (ip), vehicle: saline with Tween-80): 112 % of control

O=C1c2ccccc2C(=O)c2c(Nc3cc4c5c(ccc6c7ccc8c9c(cc(Nc%10cccc%11c%10C(=O)c%10ccccc%10C%11=O)c(c3c56)c97)-c3ccccc3C8=O)C(=O)c3ccccc3-4)cccc21
T/C (dose: 12.5 mg/kg/injection, schedule: Q01DX005 (ip), vehicle: Klucel (hydroxypropylcellulose) (HPC)): 106 % of control
T/C [4]: 101 % of control
T/C [5]: 98 % of control and 101 % of control
T/C [6]: 96 % of control

CC(C)C(CO)NC(=O)c1ccccc1 (stereo unspecified)
T/C (dose: 100.0 mg/kg/injection, schedule: Q04DX002 (ip), vehicle: Klucel (hydroxypropylcellulose) (HPC)): 95 % of control
T/C (dose: 200.0 mg/kg/injection, schedule: Q04DX002 (ip), vehicle: Klucel (hydroxypropylcellulose) (HPC)): 96 % of control
T/C (dose: 400.0 mg/kg/injection, schedule: Q04DX002 (ip), vehicle: Klucel (hydroxypropylcellulose) (HPC)): 95 % of control

COC1C(CN(C)N=Nc2ccccc2C(N)=O)OC2OC(C)(C)OC21 (stereo unspecified)
T/C [22]: 94 % of control
T/C [23]: 91 % of control
T/C [24]: 91 % of control

C[C@H]1CN[C@@H]2[C@@H](C)[C@H]3[C@@H](C[C@H]4[C@@H]5CC[C@H]6C[C@@H](N)CC[C@]6(C)[C@H]5CC[C@]34C)O[C@@]2(O)C1
T/C [14]: 103 % of control
T/C [15]: 94 % of control
T/C [16]: 100 % of control
T/C (dose: 25.0 mg/kg/injection, schedule: Q01DX009 (ip), vehicle: saline): 98 % of control

OC1(C2CCCC2)C2C=CC1C1CCCCCCC12 (stereo unspecified)
T/C [22]: 100 % of control
T/C [23]: 100 % of control
T/C [24]: 97 % of control

COc1ccc(S(=O)(=O)NC(=O)c2ccccc2)cc1
T/C (dose: 50.0 mg/kg/injection, schedule: Q04DX003 (ip), vehicle: saline): 103 % of control
T/C [11]: 106 % of control and 97 % of control
T/C [12]: 98 % of control and 104 % of control
T/C [13]: 101 % of control

COc1ccc(C(=O)N/N=C2\C(=O)c3c(C)cc(C)cc3CC2(C)C)cc1
T/C [17]: 100 % of control
T/C [18]: 100 % of control
T/C [19]: 94 % of control

Cc1cc(C)c2c(c1)CC(C)(C)C(=O)OC2=O
T/C [20]: 107 % of control
T/C [21]: 101 % of control

COc1cc(OC2OC(COC3OC(CO)C(O)C(O)C3O)C(O)C(O)C2O)c2c(c1)C(=O)c1cc(C)cc(O)c1C2=O (stereo unspecified)
T/C (dose: 25.0 mg/kg/injection, schedule: Q01DX005 (ip), vehicle: water): 100 % of control
T/C (dose: 50.0 mg/kg/injection, schedule: Q01DX005 (ip), vehicle: water): 98 % of control
T/C (dose: 100.0 mg/kg/injection, schedule: Q01DX005 (ip), vehicle: water): 98 % of control
T/C (dose: 200.0 mg/kg/injection, schedule: Q01DX005 (ip), vehicle: water): 96 % of control

C1=CC(=CN2CCc3ccccc3C2)C=C1
T/C (dose: 60.0 mg/kg/injection, schedule: Q01DX005 (ip), vehicle: Klucel (hydroxypropylcellulose) (HPC)): 101 % of control
T/C (dose: 120.0 mg/kg/injection, schedule: Q01DX005 (ip), vehicle: Klucel (hydroxypropylcellulose) (HPC)): 102 % of control
T/C (dose: 240.0 mg/kg/injection, schedule: Q01DX005 (ip), vehicle: Klucel (hydroxypropylcellulose) (HPC)): 103 % of control
